# According to patent US9050345B2, “Pyrrolotriazines as potassium ion channel inhibitors” (BRISTOL-MYERS SQUIBB COMPANY, priority 2013, dated 2015):
# Biological target: T1, human KV 1.5 (IKur) (Homo sapiens, UniProt P22460)
# T1 construct: expressed in transfected cells
# Test: block of IKur current in patch clamped L-929 cells expressing human Kv1.5
# Assay type: cell-based
# Details: 0.3 μM; patch clamped mammalian L-929 cells stably expressing human Kv1.5
# T1 sequence (P22460 whole entry): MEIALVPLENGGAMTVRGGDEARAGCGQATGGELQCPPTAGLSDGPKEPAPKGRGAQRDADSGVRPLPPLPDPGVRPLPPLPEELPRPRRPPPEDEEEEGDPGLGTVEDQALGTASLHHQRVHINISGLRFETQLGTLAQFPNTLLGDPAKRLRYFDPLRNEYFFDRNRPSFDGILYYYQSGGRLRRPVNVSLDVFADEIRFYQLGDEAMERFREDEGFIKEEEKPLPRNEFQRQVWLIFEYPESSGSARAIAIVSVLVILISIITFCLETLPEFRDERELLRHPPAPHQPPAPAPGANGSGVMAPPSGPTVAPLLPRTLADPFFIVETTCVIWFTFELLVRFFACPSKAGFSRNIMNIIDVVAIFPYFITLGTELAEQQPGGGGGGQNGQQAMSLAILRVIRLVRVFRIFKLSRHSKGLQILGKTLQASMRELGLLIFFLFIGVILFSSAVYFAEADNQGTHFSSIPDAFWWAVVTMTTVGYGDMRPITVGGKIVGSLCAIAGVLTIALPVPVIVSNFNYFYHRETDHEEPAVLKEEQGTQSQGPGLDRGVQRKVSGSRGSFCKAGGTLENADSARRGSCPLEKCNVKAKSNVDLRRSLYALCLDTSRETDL
row,Compound,KV1_5% Inh L929 @0.3 μM [%]
1,"NS(=O)(=O)c1cncc(-c2nc(NC3CCCc4cccnc43)c3c(-c4ccccc4)ccn3n2)c1 (stereo not shown) [Example 171, 5-(5-phenyl-4-((5,6,7,8-tetrahydroquinolin-8-yl)amino)pyrrolo[2,1-f] [1,2,4]triazin-2-yl)pyridine-3-sulfonamide]",97.64

# Same assay, conditions: L929, 0.3 μM; patch clamped mammalian L-929 cells stably expressing human Kv1.5; read-out: KV1_5% Inh L929 @0.3 μM
row,Compound,inhibition at 0.3 µM [%]
1,"NS(=O)(=O)c1cnc(O)c(-c2nc(NCc3ccccn3)c3c(-c4ccccc4)ccn3n2)c1 [Example 153, 6-hydroxy-5-(5-phenyl-4-((pyridin-2-ylmethyl)amino)pyrrolo [2,1-f][1,2,4]triazin-2-yl)pyridine-3-sulfonamide]",79.9
2,"NS(=O)(=O)c1cncc(-c2nc(NCc3cnccn3)c3c(-c4ccccc4)ccn3n2)n1 [Example 154, 6-(5-phenyl-4-((pyrazin-2-ylmethyl)amino)pyrrolo [2,1-f][1,2,4]triazin-2-yl)pyrazine-2-sulfonamide]",89.5
3,"NS(=O)(=O)c1cncc(-c2nc(NCCN3CCOCC3)c3c(-c4ccccc4)ccn3n2)c1 [Example 155, 5-(4-((2-morpholinoethyl)amino)-5-phenylpyrrolo [2,1-f][1,2,4]triazin-2-yl)pyridine-3-sulfonamide]",30.2
4,"NS(=O)(=O)c1cncc(-c2nc(NCc3cnccn3)c3c(-c4ccccc4F)ccn3n2)c1 [Example 156, 5-(5-(2-fluorophenyl)-4-((pyrazin-2-ylmethyl)amino)pyrrolo [2,1-f][1,2,4]triazin-2-yl)pyridine-3-sulfonamide]",98.5
5,"Oc1cc(-c2nc(NCc3ccccn3)c3c(-c4ccccc4)ccn3n2)ccn1 [Example 157, 4-(5-phenyl-4-((pyridin-2-ylmethyl)amino)pyrrolo [2,1-f][1,2,4]triazin-2-yl)pyridin-2-ol]",94.5
6,"NS(=O)(=O)c1cncc(-c2nc(NCc3cccnc3)c3c(-c4ccccc4)ccn3n2)c1 [Example 158, 5-(5-phenyl-4-(pyridin-3-ylmethylamino)pyrrolo [1,2-f][1,2,4]triazin-2-yl)pyridine-3-sulfonamide]",92
7,NS(=O)(=O)c1cncc(-c2nc(NCc3ccncc3)c3c(-c4ccccc4)ccn3n2)c1 [Example 159],90
8,"NS(=O)(=O)c1cncc(-c2nc(NCc3cnccn3)c3c(-c4ccccc4)ccn3n2)c1 [Example 160, 5-(5-phenyl-4-(pyrazin-2-ylmethylamino)pyrrolo [1,2-f][1,2,4]triazin-2-yl)pyridine-3-sulfonamide]",94.7
9,"Nc1cncc(-c2nc(NCc3cnccn3)c3c(-c4ccccc4)ccn3n2)c1 [Example 161, 2-(5-aminopyridin-3-yl)-5-phenyl-N-(pyrazin-2-ylmethyl)pyrrolo[1,2-f] [1,2,4]triazin-4-amine]",97.9
10,"Nc1cncc(-c2nc(NCc3ncccn3)c3c(-c4ccccc4)ccn3n2)c1 [Example 162, 2-(5-aminopyridin-3-yl)-5-phenyl-N-(pyrimidin-2-ylmethyl)pyrrolo[2,1-f] [1,2,4]triazin-4-amine]",95.6
11,"NS(=O)(=O)c1cncc(-c2nc(NCc3nccs3)c3c(-c4ccccc4)ccn3n2)c1 [Example 163, 5-(5-phenyl-4-((thiazol-2-ylmethyl)amino)pyrrolo [2,1-f][1,2,4]triazin-2-yl)pyridine-3-sulfonamide]",97.5
12,"NS(=O)(=O)c1cncc(-c2nc(NCc3ccncn3)c3c(-c4ccccc4)ccn3n2)c1 [Example 165, 5-(5-phenyl-4-((pyrimidin-4-ylmethyl)amino)pyrrolo [2,1-f][1,2,4]triazin-2-yl)pyridine-3-sulfonamide]",90.3
13,"NS(=O)(=O)c1cncc(-c2nc(NCc3ccccn3)c3c(-c4ccccc4F)ccn3n2)c1 [Example 166, 5-(5-(2-fluorophenyl)-4-((pyridin-2-ylmethyl)amino)pyrrolo [2,1-f][1,2,4]triazin-2-yl)pyridine-3-sulfonamide]",98
14,"COC(=O)c1ccccc1CNc1nc(-c2cncc(S(N)(=O)=O)c2)nn2ccc(-c3ccccc3)c12 [Example 167, methyl 2-(((5-phenyl-2-(5-sulfamoylpyridin-3-yl)pyrrolo[2,1-f][1,2,4]triazin-4-yl)amino)methyl) benzoate]",89.8
15,"N#Cc1ccccc1CNc1nc(-c2cncc(S(N)(=O)=O)c2)nn2ccc(-c3ccccc3)c12 [Example 168, 5-(4-((2-cyanobenzyl)amino)-5-phenylpyrrolo [2,1-f][1,2,4]triazin-2-yl)pyridine-3-sulfonamide]",86.8
16,"NC(=O)c1ccccc1CNc1nc(-c2cncc(S(N)(=O)=O)c2)nn2ccc(-c3ccccc3)c12 [Example 169, 2-(((5-phenyl-2-(5-sulfamoylpyridin-3-yl)pyrrolo[2,1-f][1,2,4]triazin-4-yl)amino)methyl) benzamide]",62.2
17,"NS(=O)(=O)c1cncc(-c2nc(NC3CCCc4cccnc43)c3c(-c4ccccc4)ccn3n2)c1 (stereo not shown) [Example 170, 5-(5-phenyl-4-((5,6,7,8-tetrahydroquinolin-8-yl)amino)pyrrolo[2,1-f] [1,2,4]triazin-2-yl)pyridine-3-sulfonamide]",96.4
18,"NS(=O)(=O)c1cncc(-c2nc(NCc3nc4ccccc4s3)c3c(-c4ccccc4)ccn3n2)c1 [Example 172, 5-(4-((benzo[d]thiazol-2-ylmethyl)amino)-5-phenylpyrrolo [2,1-f][1,2,4]triazin-2-yl)pyridine-3-sulfonamide]",84.3
19,"NS(=O)(=O)c1cncc(-c2nc(NCc3ncccc3F)c3c(-c4ccccc4F)ccn3n2)c1 [Example 173, 5-(5-(2-fluorophenyl)-4-(((3-fluoropyridin-2-yl)methyl)amino)pyrrolo [2,1-f][1,2,4]triazin-2-yl)pyridine-3-sulfonamide]",98.7
20,"Cc1csc(CNc2nc(-c3cncc(S(N)(=O)=O)c3)nn3ccc(-c4ccccc4)c23)n1 [Example 174, 5-(4-(((4-methylthiazol-2-yl)methyl)amino)-5-phenylpyrrolo [2,1-f][1,2,4]triazin-2-yl)pyridine-3-sulfonamide]",97.2
21,"COc1ncc(-c2nc(NCc3nc(C)cs3)c3c(-c4ccccc4)ccn3n2)cc1S(N)(=O)=O [Example 175, 2-methoxy-5-(4-(((4-methylthiazol-2-yl)methyl)amino)-5-phenylpyrrolo [2,1-f][1,2,4]triazin-2-yl)pyridine-3-sulfonamide]",97.1
22,"Cc1cc(CNc2nc(-c3cncc(S(N)(=O)=O)c3)nn3ccc(-c4ccccc4)c23)no1 [Example 176, 5-(4-(((5-methylisoxazol-3-yl)methyl)amino)-5-phenylpyrrolo [2,1-f][1,2,4]triazin-2-yl)pyridine-3-sulfonamide]",96
23,"CCOC(=O)CC(=O)Nc1cncc(-c2nc(NCc3cnccn3)c3c(-c4ccccc4)ccn3n2)c1 [Example 177, ethyl 3-oxo-3-((5-(5-phenyl-4-((pyrazin-2-ylmethyl)amino)pyrrolo [2,1-f][1,2,4]triazin-2-yl)pyridin-3-yl)amino) propanoate]",96.7
24,"Nc1ccccc1CNc1nc(-c2cncc(S(N)(=O)=O)c2)nn2ccc(-c3ccccc3)c12 [Example 178, 5-(4-((2-aminobenzyl)amino)-5-phenylpyrrolo [2,1-f][1,2,4]triazin-2-yl)pyridine-3-sulfonamide]",99.2
25,"CS(=O)(=O)Nc1ccccc1CNc1nc(-c2cncc(S(N)(=O)=O)c2)nn2ccc(-c3ccccc3)c12 [Example 179, 5-(4-((2-(methylsulfonamido)benzyl)amino)-5-phenylpyrrolo [2,1-f][1,2,4]triazin-2-yl)pyridine-3-sulfonamide]",90.1
26,"CC(=O)Nc1ccccc1CNc1nc(-c2cncc(S(N)(=O)=O)c2)nn2ccc(-c3ccccc3)c12 [Example 180, N-(2-(((5-phenyl-2-(5-sulfamoylpyridin-3-yl)pyrrolo[2,1-f][1,2,4]triazin-4-yl)amino)methyl)phenyl)acetamide]",36.9
27,"COC(=O)Nc1ccccc1CNc1nc(-c2cncc(S(N)(=O)=O)c2)nn2ccc(-c3ccccc3)c12 [Example 181, methyl (2-(((5-phenyl-2-(5-sulfamoylpyridin-3-yl)pyrrolo[2,1-f][1,2,4]triazin-4-yl)amino)methyl)phenyl)carbamate]",96
28,"NS(=O)(=O)c1cncc(-c2nc(NCc3ccccn3)c3c(-c4ccccc4)ccn3n2)c1C(F)F [Example 182, 4-(difluoromethyl)-5-(5-phenyl-4-((pyridin-2-ylmethyl)amino)pyrrolo [2,1-f][1,2,4]triazin-2-yl)pyridine-3-sulfonamide]",93.7
29,"NS(=O)(=O)c1ccc(-c2nc(NCc3ccccn3)c3c(-c4ccccc4)ccn3n2)cn1 [Example 183, 5-(5-phenyl-4-((pyridin-2-ylmethyl)amino)pyrrolo[2,1-f][1,2,4]triazin-2-yl)pyridine-2-sulfonamide]",97.8
30,"N#Cc1ccccc1-c1ccn2nc(-c3cncc(S(N)(=O)=O)c3)nc(NCc3ccccn3)c12 [Example 184, 5-(5-(2-cyanophenyl)-4-((pyridin-2-ylmethyl)amino)pyrrolo [2,1-f][1,2,4]triazin-2-yl)pyridine-3-sulfonamide]",80.9
